Experimental findings from PMC11310889, “Ribosomal translation of fluorinated non-canonical amino acids for de novo biologically active fluorinated macrocyclic peptides” (Chemical Science, 2024) are described below.

One assay deals with T1, BAM complex.
T1 construct: made in house; host or cells: E. coli BL21(DE3), strain obtained from Xinmiao Fu, Fujian Normal University
The experiment in a line: SPR binding kinetics to BAM complex. Details: species or system E. coli. As to conditions: Biacore T200, 25 °C, multi-cycle kinetics, 1:1 model. Here is the method:
Expression and purification of the BAM complex
The E. coli BL21(DE3) cells containing all five Bam proteins (BamA, B, C, D, and E) was obtained from Xinmiao Fu of Fujian Normal University and used for expression and purification.
The BL21(DE3) cells plated onto LB-ampicillin agar plates and incubated overnight at 37 °C. A 20 mL culture incubated overnight at 37°C was prepared from a single colony in LB medium supplemented with 100 mg/L of ampicillin. The strain was inoculated into fresh LB liquid medium according to the inoculation ratio of 1:100 and incubated at 37 ℃ for about 4 hours until the OD600 reached about 1.0. The temperature of the incubator was set to 20 ℃ and then cultured for 1 hour, and 200 uM IPTG was added to induce overnight. First of all, the induced cells were collected by freezing centrifuge 3000 rpm for 30 min, and the collected cells were resuspended with Buffer 1 (20 mM Tris-HCl, pH 8.0, 150 mM NaCl), and then crushed low temperature and pressure with a high pressure crusher. The broken cells were centrifuged 1 hour at 4 °C for18000 rpm by high speed centrifuge. After centrifugation at 4 °C 18000 rpm for 1 hour, and the supernatant was discarded and the cell membrane was collected. The collected cell membranes were resuscitated with Buffer 2 (20 mM Tris-HCl, pH 8.0, 300 mM NaCl, 1% DDM) and then dissolved at 4 °C for 2 hours. After dissolving the membrane, the supernatant was collected by high speed centrifuge at 18,000 rpm. The 20 mM imidazole was added to the supernatant and incubated with a 2 mL Ni-NTA sefinoseTM resin column for 1 hour. After incubation, 10 column volumes were washed with Buffer 3 (20 mM Tris-HCl, pH 8.0, 300 mM NaCl, 0.025%DDM) containing 30 mM and 50 mM imidazole respectively. Then, the protein was eluted with Buffer 3 containing 200 mM imidazole, and the eluted protein was collected. Finally, using the 20-fold molar excess of EZ-LinkTM Sulfo-NHS-LC-LC-Biotin for BAM complex, and incubate reaction on ice for 2 hours. After the protein labeling is completed, dialysis is used to purify the labeled protein to remove the remaining unreacted and hydrolyzed biotin reagents. […]
The mobile phase was 0.1% TFA aqueous solution / acetonitrile containing 0.1%
TFA. The purified macrocyclic peptides and fluorinated macrocyclic peptides were confirmed by electrospray ionization mass spectrometry (ESI-MS).
Binding kinetics analysis by SPR
The binding kinetics between the selected peptides and EphA2 were tested by SPR using a Biacore T200 instrument (GE Healthcare) at 25 °C. In this study, the running buffer was HBS-EP+ buffer (10 mM HEPES-KOH (pH 7.4), 150 mM NaCl, 50 μM EDTA, 0.05% Tween 20) containing 0.1% DMSO. Biotin capture kit (GE Healthcare) was used to fix human EphA2 on the surface of Biacore CAP chip with a density of 1050 RU. Five different concentrations of peptides were injected at the flow rate of 30 μL/min, and their kinetic constants were determined. The binding kinetic was quantified by single cycle kinetic method. Finally, the binding sensorgrams was analyzed by Biacore evaluation software, and the standard 1:1 model was used for fitting.
The binding kinetics between the selected peptides and BAM complex were tested by SPR using […]
a Biacore T200 instrument (GE Healthcare) at 25 °C. In this study, the running buffer was HBS-EP+ […]
0.1% DMSO. The Series S Sensor Chip CM5 was used to fix BAM complex on the surface of Biacore CM5 chip with a density of 9500 RU. The binding mode was multi-cycle kinetics (one sample concentration one cycle). Finally, the binding sensorgrams was analyzed by Biacore evaluation software, and the standard 1:1 model was used for fitting.
Preliminary evaluation of the antibacterial activity of macrocyclic peptides against E. coli […]
Remove the previously preserved E. coli W3110 cells from the -80 °C refrigerator, scrape a little, inoculate it into 1 mL LB liquid medium, and culture overnight in 37°C shaker. The strain was […]
(In general: In SPR one partner is held on a chip, and binding of the other changes the refractive index at the surface.)

The next assay addresses human EphA2 (Homo sapiens, UniProt P29317). The assay is described as follows: SPR binding kinetics to EphA2. As to conditions: Biacore T200, 25 °C, HBS-EP+ buffer pH 7.4 with 0.1% DMSO, biotinylated human EphA2 on CAP chip (1050 RU), single cycle kinetics, five concentrations, 1:1 model. Here is the method: The cDNAs was detected by QuantStudio™ real-time PCR system (Applied Biosystems), then PCR was recovered by phusion® high-fidelity DNA polymerase and transcribed in vitro to construct a mRNA library rich in BAM complex(or EphA2) binding sequences to prepare for the next round of screening. Starting with the second round of screening, six more negative selections were added before positive selections to remove unwanted beads binders. Finally, the cDNAs recovered in the sixth(or fifth) round was deep sequencing using NovaSeq 6000 system (Ilumina).
General procedures for solid-phase synthesis of selected peptides
In this study, macrocyclic peptides and fluorinated macrocyclic peptides were synthesized by standard Fmoc solid phase peptide synthesis (SPPS). Firstly, a mixture (0.3 mmol Fmoc-Gly-OH and 0.3 mmol HOBT dissolved in 8 mL DMF and 0.5 mL DIC) was prepared, and 0.5 g Rink Amide MBHA resin was added to the mixture, and then reacted under nitrogen protection for 1.5 h. The resin was filtered and washed at least three times with DMF and DCM, and a deprotective agent (DMF solution containing 20% piperidine) was added to remove the Fmoc protective group. Then a new mixture (0.9 mmol Fmoc-AA-OH and 0.9 mmol HOBT dissolved in 10 mL DMF and 1 mL DIC) was prepared and condensation reaction was carried out under nitrogen protection for 1 hour.
By repeating the steps of deprotection and condensation reaction, the desired peptide was finally obtained, and the bromoacetyl group was connected to the N-terminal free α-amino group of the resin peptide. […]
The binding kinetics between the selected peptides and EphA2 were tested by SPR using a Biacore T200 instrument (GE Healthcare) at 25 °C. […] Five different concentrations of peptides were injected at the flow rate of 30 μL/min, and their kinetic constants were determined. The binding kinetic was quantified by single cycle kinetic method. Finally, the binding sensorgrams was analyzed by Biacore evaluation software, and the standard 1:1 model was used for fitting. […]

What is called Kd is the equilibrium constant for the complex coming apart. A high value points to lower affinity.

Where a SMILES comes first, the peptide text is derived from it. Bridges are numbered along the chain shown (N, C = ends). [ ]: non-standard residue; d: D form. Phe(3,4-F2) = N[C@@H](Cc1ccc(F)c(F)c1)C(=O)O; dPhe(4-F) = N[C@H](Cc1ccc(F)cc1)C(=O)O

Sequence of human EphA2 (P29317 24-976): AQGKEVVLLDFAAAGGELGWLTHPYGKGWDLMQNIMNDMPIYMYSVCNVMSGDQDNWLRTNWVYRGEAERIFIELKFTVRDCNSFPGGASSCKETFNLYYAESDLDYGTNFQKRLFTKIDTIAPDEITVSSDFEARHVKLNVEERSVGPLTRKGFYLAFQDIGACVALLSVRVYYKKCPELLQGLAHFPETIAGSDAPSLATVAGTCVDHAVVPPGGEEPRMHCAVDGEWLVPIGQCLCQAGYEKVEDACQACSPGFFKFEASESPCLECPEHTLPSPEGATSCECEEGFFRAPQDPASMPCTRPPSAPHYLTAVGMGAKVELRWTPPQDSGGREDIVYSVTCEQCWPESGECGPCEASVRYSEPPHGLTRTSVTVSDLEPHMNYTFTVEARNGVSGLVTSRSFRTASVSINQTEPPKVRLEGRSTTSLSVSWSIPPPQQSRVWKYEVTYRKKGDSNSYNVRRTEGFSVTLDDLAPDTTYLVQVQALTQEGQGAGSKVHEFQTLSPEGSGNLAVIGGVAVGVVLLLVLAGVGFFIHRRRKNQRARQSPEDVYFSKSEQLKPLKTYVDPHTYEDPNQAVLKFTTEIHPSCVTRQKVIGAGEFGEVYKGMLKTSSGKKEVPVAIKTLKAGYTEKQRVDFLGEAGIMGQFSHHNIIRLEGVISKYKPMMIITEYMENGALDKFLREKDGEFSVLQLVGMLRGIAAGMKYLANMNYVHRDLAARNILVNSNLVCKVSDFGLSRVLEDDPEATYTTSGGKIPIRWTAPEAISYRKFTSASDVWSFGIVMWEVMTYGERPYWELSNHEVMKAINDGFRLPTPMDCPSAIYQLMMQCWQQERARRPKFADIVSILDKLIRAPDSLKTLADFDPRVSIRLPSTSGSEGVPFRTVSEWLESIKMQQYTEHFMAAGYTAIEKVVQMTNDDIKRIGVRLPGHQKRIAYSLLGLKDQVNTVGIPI
T1 sequence (P0A903 25-344): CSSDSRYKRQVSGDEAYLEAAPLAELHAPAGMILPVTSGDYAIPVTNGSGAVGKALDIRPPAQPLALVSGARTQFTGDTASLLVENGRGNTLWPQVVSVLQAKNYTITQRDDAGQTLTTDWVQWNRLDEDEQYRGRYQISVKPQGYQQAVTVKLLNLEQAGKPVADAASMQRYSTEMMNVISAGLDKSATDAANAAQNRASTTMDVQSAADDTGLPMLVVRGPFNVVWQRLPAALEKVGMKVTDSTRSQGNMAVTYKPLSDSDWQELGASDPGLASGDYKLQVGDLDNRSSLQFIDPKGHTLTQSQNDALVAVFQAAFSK
T1 sequence (P0AC02 20-245, further chain): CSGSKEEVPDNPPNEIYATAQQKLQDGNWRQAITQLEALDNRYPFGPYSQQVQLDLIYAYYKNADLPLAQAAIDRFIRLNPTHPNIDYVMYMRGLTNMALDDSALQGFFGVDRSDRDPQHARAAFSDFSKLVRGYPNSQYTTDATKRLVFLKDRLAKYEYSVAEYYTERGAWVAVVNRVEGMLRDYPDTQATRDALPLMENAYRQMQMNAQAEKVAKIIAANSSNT
T1 sequence (P0A937 20-113, further chain): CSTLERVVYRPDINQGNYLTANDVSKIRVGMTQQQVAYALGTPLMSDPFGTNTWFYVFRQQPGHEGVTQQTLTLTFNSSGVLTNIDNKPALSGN
T1 sequence (P77774 20-392, further chain): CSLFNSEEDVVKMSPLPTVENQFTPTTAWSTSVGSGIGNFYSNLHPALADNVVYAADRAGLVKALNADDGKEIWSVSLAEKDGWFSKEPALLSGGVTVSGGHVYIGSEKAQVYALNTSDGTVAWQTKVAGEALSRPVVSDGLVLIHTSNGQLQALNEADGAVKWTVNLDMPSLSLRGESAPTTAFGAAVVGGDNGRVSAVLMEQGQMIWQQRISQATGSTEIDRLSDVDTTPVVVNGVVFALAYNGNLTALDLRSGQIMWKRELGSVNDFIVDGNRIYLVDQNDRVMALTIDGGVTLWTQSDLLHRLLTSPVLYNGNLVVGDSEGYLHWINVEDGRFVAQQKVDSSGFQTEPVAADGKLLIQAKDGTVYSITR

Turning to `CC[C@H](C)[C@@H]1NC(=O)[C@H](CC(C)C)NC(=O)[C@@H](Cc2ccc(O)cc2)NC(=O)CSC[C@@H](C(=O)NCC(N)=O)NC(=O)[C@H](C(C)C)NC(=O)[C@H](CCCNC(=N)N)NC(=O)[C@H](Cc2ccccc2)NC(=O)[C@@H]2CCCN2C(=O)[C@H](Cc2c[nH]cn2)NC(=O)[C@H](CO)NC(=O)[C@H](CCCNC(=N)N)NC(=O)[C@H](CO)NC(=O)[C@H](Cc2ccc(O)cc2)NC(=O)[C@H](Cc2c[nH]c3ccccc23)NC1=O` [BAM-D1] ({CH2CO}-[dY]LIWYSRSHPFRVCG-NH2; thioether N-14), the “ka for BAM complex” value with BAM complex (CM5 chip) is 0.43 ×10 4 M-1s-1. This compound also showed a Kd at BAM complex (HBS-EP+ buffer pH 7.4 with 0.1% DMSO, BAM complex on CM5 chip (9500 RU)) of 763 nM.

For the compound `CC[C@H](C)[C@@H]1NC(=O)[C@@H](Cc2ccc(F)cc2)NC(=O)CSC[C@@H](C(=O)NCC(N)=O)NC(=O)[C@H](Cc2ccc(O)cc2)NC(=O)[C@H](CCCNC(=N)N)NC(=O)[C@H](CCC(N)=O)NC(=O)[C@H]([C@@H](C)O)NC(=O)[C@H]([C@@H](C)O)NC(=O)[C@H](Cc2ccc(F)c(F)c2)NC(=O)[C@H](CCCCN)NC(=O)[C@H](CC(C)C)NC(=O)[C@H](C)NC(=O)[C@H](Cc2ccc(O)cc2)NC(=O)[C@H](Cc2c[nH]c3ccccc23)NC1=O` [Ep-F1] ({CH2CO}-[dPhe(4-F)]IWYALK[Phe(3,4-F2)]TTQRYCG-NH2; thioether N-14), the Kd on human EphA2 worked out at 9.9 nM.

Turning to `CC(C)C[C@@H]1NC(=O)[C@@H]2CCCN2C(=O)[C@H](Cc2c[nH]cn2)NC(=O)[C@@H](Cc2ccc(F)cc2)NC(=O)CSC[C@@H](C(=O)N[C@@H](Cc2c[nH]c3ccccc23)C(=O)N[C@H](C(=O)N[C@@H](CCCCN)C(=O)N[C@@H](CO)C(=O)NCC(N)=O)[C@@H](C)O)NC(=O)CNC(=O)[C@H](Cc2ccc(F)c(F)c2)NC(=O)[C@H](CC(N)=O)NC(=O)[C@H](Cc2ccc(O)cc2)NC1=O` [Ep-F2] ({CH2CO}-[dPhe(4-F)]HPLYN[Phe(3,4-F2)]GCWTKSG-NH2; thioether N-9), on human EphA2, binding was put at a Kd of 0.25 nM.

For the compound “Ep-F2-M2: variant of Ep-F2 measured by SPR (Fig. S4) to examine the role of fluorination (FHPLYNFGCWTKSG; Parent Ep-F2 is printed as Ac-(4-F-DPhe)HPLYN(2F-LPhe)GCWTKSG-NH2)”, the affinity in the assay with human EphA2, expressed as Kd, was 0.29 nM.
